Measured values as given in patent US20210087159A1, “TETRAHYDROCANNABINOLIC- CA[…] DERIVATIVES AND USES THEREOF” (AL&AM […]., priority 2018, published 2021).

Experiments:
Format in all cases: cell-based
TNF-α = experiment: LPS induced cytokine release assay, TNF-α by ELISA in PBMCs; conditions: human PBMCs; for TNF-α: 72 h; for change of TNF-α expression in LPS-treated cells: tested concentrations of 1 M and 10 M (so in the source)
Excerpt: (§1) This study was aimed to test the effect of 12 compounds (THCA, Ia1, Ia5, Ia6, Ia9, Ia11, Ia15, Ia17, Ia24, Ia25, Ia27, and Ia28) on human peripheral blood mononuclear cells (PBMCs) challenged by lipopolysaccharide (LPS) through monitoring multiple inflammatory endpoints.
(§2) Blood samples were collected from healthy volunteers according to protocols that have been reviewed and approved by the Chempartner Institutional Ethic Committee (IEC) upon signing an Informed Consent Form (ICF).
(§3) Fresh PBMCs were isolated and seeded into 96-well plate, and diluted solutions of the tested compounds and 0.1 μg/mL LPS were then added (in triplicates). To serve as control, 3 wells with PBMCs only, 3 wells with 0.1 μg/mL LPS, and 2 wells with 1 μg/mL dexamethasone (Dex) and 0.1 μg/mL LPS were included. After 72 hours incubation, supernatant was collected for tumor necrosis factor-α (TNF-α) measurement by enzyme-linked immunosorbent assay (ELISA), and cell pellets were harvested for cell proliferation measurement by CellTiter-Glo® Luminescent Cell Viability Assay (CTG).
(§4) The human blood sample from an individual donor was diluted by the same volume of sterile phosphate buffered solution (PBS) and mixed sufficiently by gentle shake. 15 mL Lymphoprep™ medium was transferred into a new 50 mL centrifuge tube, and the diluted blood sample (30 mL) was then carefully added onto the surface of the medium, which consequently contained Ficoll 400 and blood in a volume ratio of 1:2. Four interfaces were observed after centrifugation, which are, from top to bottom, layers of plasma, mononuclear cells, Ficoll medium, and red blood cells (RBCs). Plasma was absorbed, and mononuclear cells were then transferred into another new sterile centrifuge tube. Then, sterile PBS buffer was added into the collected PBMCs for washing, at a volume ratio of 3:1. PBMCs were washed with 5-10 mL PBS twice before cell counting with cytometer. Cells were centrifuged at 350×g, for 10 min, at 20° C. with the acceleration (5) and deceleration (5) settings during the centrifugation. The cells were resuspended with RPMI 1640 complete medium (containing 10% FBS) for assay, and the density was adjusted with RPMI 1640 complete medium to the final concentration of 2E6 cells/mL. Cells suspension of the PBMCs (100 μL/well) were seeded into 96-well plate (#3903).
(§5) Diluted solutions of the tested compounds were prepared with RPMI 1640 complete medium according to the following layout. Compounds were prepared at 5-fold of concentration (50 μM), and then were diluted to the working concentration of 10 μM with RPMI 1640 complete medium and made 10-fold serially dilution (2 points). The diluted compounds (50 μL/well) were added to the indicated wells, and the plate was incubated at 37° C., 5% CO2, for 72 h.
(§6) LPS (0.1 μg/mL, 100 μL) was added into each well. Dex (1 μg/mL) was included as a positive control. Plate was incubated at 37° C., 5% CO2 for 72 h. Supernatant was collected to measure TNF-α by ELISA. Cell proliferation was detected by CTG.

[1] = test system: human peripheral blood mononuclear cells (PBMCs); experiment: Cell proliferation of LPS-challenged PBMCs by CellTiter-Glo (CTG); conditions: human PBMCs
Excerpt: as §1, §2, §3, §4, §5, §6

[2] = test system: T47D, breast ductal carcinoma; experiment: CellTiter-Glo cell viability assay, cancer cell cytotoxicity/anti-proliferation panel (Chempartner); conditions: Table 5, T47D cells, 72 hours; for IC50: Homo sapiens, read-out: AbsIC50; for Inhibition %: 10 μM starting, 10-pt, 3-fold dilution
Description: In this study, the biological activity of certain compounds of the present invention on cancer cell cytotoxicity/anti-proliferation panel was tested using the CellTiter-Glo® cell viability assay. The compounds were dissolved in DMSO to make 10 mM solution.
The cell lines tested were all selected from the Chempartner's cell collection and included: Caco-2 ATCC colon adenocarcinoma; TE-6 RIKEN esophagus, carcinoma; PC-3 ATCC prostate adenocarcinoma; T47D, breast ductal carcinoma; U251, brain human glioma; A549, lung carcinoma; OMP-2, multiple myeloma; SK-HEP-1, liver adenocarcinoma; PANC-1, pancreas ductal carcinoma; AsPC-1, pancreas, ductal carcinoma; and U-87 MG, brain glioblastoma.
For the assays described herein, absolute inhibition of cells growth (%) and absolute IC50 (Abs IC50; […]) were used to derive a value that can be used to compare results within and across runs in the same assay, as well as between different assays.
• a. Prepare complete medium: Add FBS and appropriate additives according to the information sheet provided by the vendor. Mix gently. • b. Check the cell name and complete medium and passage number marked on the flask. For adherent cell lines, refer to c to k. For suspension cell lines, refer to g to k. • c. Remove and discard culture medium using a vacuum pump. • d. Briefly rinse the cell layer with 0.25% (w/v) trypsin-0.038% (w/v) EDTA solution to remove all traces of serum that contains trypsin inhibitor. • e. Add 3.0 ml of trypsin-EDTA solution to flask and observe cells under an inverted microscope until cell layer is dispersed. • f. Add 8.0 ml of complete growth medium and aspirate cells by gently pipetting. • g. Transfer the cell suspension to a centrifuge tube and centrifuge at 800-1000 rpm for 3-5 minutes. • h. Discard the supernatant using a vacuum pump. • i. Add appropriate volume of complete medium. Suspend the cell pellet by gently pipetting. • j. Count the cell numbers with Vi-cell XR and adjust cells to appropriate density. • k. Add 100 μL of cell suspension to 96-well opaque-walled clear bottom plates according to the planned plate layout and place the plates in the CO2 incubator overnight. • l. Plate layout:
• Plate preparation of testing articles. 10 mM stock solution of each one of the compounds (provided as powder) was prepared in DMSO. […] 0.5 μL of each of the diluted compounds was transferred to the wells containing 100 μL of the culture medium. The total dilution was 200 fold. Cells were incubated with the compounds for 72 hours at 5% CO2, 37° C.
• Thaw the CellTiter-Glo buffer and equilibrate to room temperature prior to use. • Equilibrate the lyophilized CellTiter-Glo substrate to room temperature prior to use. • Transfer the appropriate volume of CellTiter-Glo buffer into the amber bottle containing CellTiter-Glo substrate to reconstitute the lyophilized enzyme/substrate mixture. This forms the CellTiter-Glo reagent. • Mix by gently vortexing, swirling or by inverting the contents to obtain a homogeneous solution. The CellTiter-Glo substrate should go into solution easily in less than one minute.
• Observe the cell morphology under an inverted microscope after corresponding treatment. • Equilibrate the plate and its contents to room temperature for approximately 30 minutes. • Add 100 μL of CellTiter-Glo reagent to the assay plate by Multidrop Combi instrument. • Mix contents for 10 minutes on an orbital shaker to induce cell lysis. • Allow the plate to incubate at room temperature for 10 minutes to stabilize luminescent signal. • Paste the clear bottom with white back seal and record luminescence with Enspire. The settings should be: Luminescence, measurement time 0.1 ms.
Inhibition (%) and absolute IC50 (μM) of each compound was calculated with XLFit curve fitting software that is compatible to Activity Base.

[3] = compound 1 μM + 0.1 μg/mL LPS, ELISA (LPS control 18.16)
[4] = compound 10 μM + 0.1 μg/mL LPS, ELISA (LPS control 18.16)
[5] = compound 1 μM + 0.1 μg/mL LPS, 72 h (LPS control 84.50)
[6] = compound 10 μM + 0.1 μg/mL LPS, 72 h (LPS control 84.50)

| SMILES | TNF-α (TNF-α; [3]) | TNF-α (TNF-α; [4]) | CTG signal [1, 5] | CTG signal [1, 6] | IC50 [2] | Inhibition % [2] | change of TNF-α expression in LPS-treated cells (TNF-α) | decrease of the level of TNF-α as compared to LPS-treated cells (TNF-α; 1 μg/mL Dex) | TNF-α (TNF-α; 1 μg/ml Dex + 0.1 μg/ml LPS + 0.1% DMSO) | CTG signal ([1]; 1 μg/ml Dex + 0.1 μg/ml LPS + 0.1% DMSO, 72 h) |
| --- | --- | --- | --- | --- | --- | --- | --- | --- | --- | --- |
| CCCCCc1cc2c(c(O)c1C(N)=O)[C@@H]1C=C(C)CC[C@H]1C(C)(C)O2 [Ia1, (6aR,0aR)-1-hydroxy-6,6,9-trimethyl-3-pentyl-6a,7,8,10a-tetrahydro-6H-benzo[c]chromene-2-carboxamide] | 16.30 pg/mL | 11.85 pg/mL | 74.10 10^4 | 70.03 10^4 | – | – | – | – | – | – |
| CCCCCc1cc2c(c(O)c1C(=O)NCCOC)[C@@H]1C=C(C)CC[C@H]1C(C)(C)O2 [Ia4, (6aR,0aR)-1-hydroxy-N-(2-methoxyethyl)-6,6,9-trimethyl-3-pentyl-6a,7,8,10a-tetrahydro-6H-benzo[c]chromene-2-carboxamide] | – | – | – | – | > 10 µM | 3.13% | – | – | – | – |
| CCCCCc1cc2c(c(O)c1C(=O)S)[C@@H]1C=C(C)CC[C@H]1C(C)(C)O2 [Ia25, (6aR,0aR)-1-hydroxy-6,6,9-trimethyl-3-pentyl-6a,7,8,10a-tetrahydro-6H-benzo[c]chromene-2-carbothioic S-acid] | 42.50 pg/mL | 36.82 pg/mL | 83.27 10^4 | 75.29 10^4 | – | – | decreased TNF-α expression | – | – | – |
| CCCCCc1cc2c(c(O)c1CNCCCN1CCOCC1)[C@@H]1C=C(C)CC[C@H]1C(C)(C)O2 [Ia21, (6aR,10aR)-6,6,9-trimethyl-2-(((3-morpholinopropyl)amino)methyl)-3-pentyl-6a,7,8,10a-tetrahydro-6H-benzo[c]chromen-1-ol] | – | – | – | – | > 10 µM | 21.68% | – | – | – | – |
| CCCCCc1cc2c(c(O)c1C(=O)NCc1ccncc1)[C@@H]1C=C(C)CC[C@H]1C(C)(C)O2 [Ia11, 1-hydroxy-6,6,9-trimethyl-3-pentyl-N-(pyridin-4-ylmethyl)-6a,7,8,10a-tetrahydro-6H-benzo[c]chromene-2-carboxamide] | 28.40 pg/mL | 15.39 pg/mL | 72.49 10^4 | 74.91 10^4 | > 10 µM | 15.80% | decreased TNF-α expression | – | – | – |
| CCCCCc1cc2c(c(O)c1C(=O)NCC1CC1)[C@@H]1C=C(C)CC[C@H]1C(C)(C)O2 [Ia5, (6aR,0aR)—N-(cyclopropylmethyl)-1-hydroxy-6,6,9-trimethyl-3-pentyl-6a,7,8,10a-tetrahydro-6H-benzo[c]chromene-2-carboxamide] | 19.60 pg/mL | 32.33 pg/mL | 74.73 10^4 | 76.26 10^4 | > 10 µM | 7.89% | increased TNF-α expression | – | – | – |
| C[C@@H]1C[C@H]2[C@@H]3CCC4=CC(=O)C=C[C@]4(C)[C@@]3(F)[C@@H](O)C[C@]2(C)[C@@]1(O)C(=O)CO [Dex, dexamethasone, reference compound] | – | – | – | – | – | – | – | 2.5 folds | 5.38 pg/mL | 65.51 10^4 |
| CCCCCc1cc2c(c(O)c1C(=O)Nc1ccc(N3CCOCC3)cc1)[C@@H]1C=C(C)CC[C@H]1C(C)(C)O2 [Ia17, (6aR,0aR)-1-hydroxy-6,6,9-trimethyl-N-(4-morpholinophenyl)-3-pentyl-6a,7,8,10a-tetrahydro-6H-benzo[c]chromene-2-carboxamide] | 16.44 pg/mL | 24.59 pg/mL | 74.83 10^4 | 72.61 10^4 | – | – | increased TNF-α expression | – | – | – |
| CCCCCc1cc2c(c(O)c1-c1nnc(C)o1)[C@@H]1C=C(C)CC[C@H]1C(C)(C)O2 [Ia24, (6aR,0aR)-6,6,9-Trimethyl-2-(5-methyl-1,3,4-oxadiazol-2-yl)-3-pentyl-6a,7,8,10a-tetrahydro-6H-benzo[c]chromen-1-ol] | 32.33 pg/mL | 28.53 pg/mL | 77.88 10^4 | 62.41 10^4 | – | – | decreased TNF-α expression | – | – | – |
